This assay has as its system KB. The experiment in a line: Cytotoxicity against human KB cells. Type of assay: functional, cell-based.

Consider `CC(C)=CCC[C@@H](C)[C@H]1C=C[C@@]2(C(=O)O)[C@H](CC(C)=C[C@@H]2/C=C(\C)C2CCC(C(=O)O)CC2)C1` (stereo partly specified) [MEIOGYNIN A], for which it took 4 µM to reach half-maximal inhibition (IC50).

The IC50 is the concentration needed to halve the response being measured. A lower IC50 goes with inhibition by little substance.

These data come from ChEMBL document CHEMBL1152310, “A Dimeric sesquiterpenoid from a Malaysian Meiogyne as a new inhibitor of Bcl-xL/BakBH3 domain peptide interaction” (J Nat Prod, 2009).
